Tests used:
Type in all cases: in vivo, Wistar rats
P-p38 MAPK = test: Western blotting, retinal P-p38 MAPK after I/R; settings: intravitreal 2 nmole 15 min before ischemia, I/R 24 h
Description: Intravitreal injections were performed using a 30-gauge needle attached to a 25 μl syringe after pupil dilation with 1% tropicamide and 2.5% phenylephrine. In certain instances, intravitreal injections of 4 μl of 2 nmole SB203580 (Calbiochem, San Diego, Calif.) or vehicle (an equal volume of DMSO) were performed on ischemic eyes fifteen minutes before pressure-induced retinal ischemia.
One day following retinal ischemia with preadministration of relevant compounds or following a sham procedure, the animals were sacrificed. Retinal samples were retrieved and sonicated in a lysis buffer, mammalian protein extraction reagent (Pierce, Ill.).

MMP-9 [1] = test: Western blotting, retinal MMP-9 after I/R; settings: intravitreal 2 nmole 15 min before ischemia, I/R 24 h
MMP-9 [2] = test: Gel zymography, retinal MMP-9 activity after I/R; settings: intravitreal 2 nmole 15 min before ischemia, 24 h after ischemia

## C[S+]([O-])c1ccc(-c2nc(-c3ccncc3)c(-c3ccc(F)cc3)[nH]2)cc1 (stereo not drawn) [SB203580]
P-p38 MAPK
  P-p38/β-actin protein ratio: 0.23 ± 0.05
MMP-9 [1]
  MMP-9/β-actin protein ratio (Western blotting): 0.31 ± 0.10
MMP-9 [2]
  MMP-9/β-actin (gel zymography, MMP-9 activity): 1.49 ± 0.21
